This passage reports zone of inhibition, MIC and PI results from ChEMBL document CHEMBL2417483, “Synthesis of thiosemicarbazones derived from N-(4-hippuric acid)thiosemicarbazide and different carbonyl compounds as antimicrobial agents” (2013).

In experiment [1] the test system is Bacillus spizizenii. Put plainly: Antibacterial activity against Bacillus subtilis ATCC 6633 assessed as growth inhibition at 1 mg/mL after 24 hrs by agar well diffusion assay. The experiment is classed as functional. The settings on record: ATCC 6633, 24 h, read-out: DIZ. A general note: A growth-free zone around the sample is the usual read-out of agar diffusion tests.

For experiment [2], the system named is Proteus vulgaris. Put plainly: Bacteriostatic activity against Proteus vulgaris after 24 hrs by two-fold serial dilution assay. Type of experiment: functional.
The test system of experiment [3] is Staphylococcus aureus. Put plainly: Antibacterial activity against Staphylococcus aureus ATCC 29213 assessed as growth inhibition at 1 mg/mL after 24 hrs by agar well diffusion assay. The experiment is classed as functional. The settings on record: ATCC 29213, 24 h, read-out: DIZ.
Experiment [4] relates to Candida albicans. Briefly: Fungistatic activity against Candida albicans NRRLY 477 after 24 hrs by two-fold serial dilution assay. Type of experiment: functional. The note with it: NRRLY 477, 24 h.
Experiment [5] relates to Candida albicans. Put plainly: Antifungal activity against Candida albicans NRRLY 477 assessed as growth inhibition at 1 mg/mL after 24 hrs by agar well diffusion assay. The note with it: NRRLY 477, 24 h, read-out: DIZ. Type of experiment: functional.
For experiment [6], the system named is Saccharomyces cerevisiae. Briefly: Fungistatic activity against Saccharomyces cerevisiae after 24 hrs by two-fold serial dilution assay. The experiment is classed as functional.
Experiment [7] relates to Micrococcus luteus. Put plainly: Antibacterial activity against Sarcina luteus assessed as growth inhibition at 1 mg/mL after 24 hrs by agar well diffusion assay. Type of experiment: functional. The settings on record: read-out: DIZ.
Experiment [8] deals with Micrococcus luteus. Put plainly: Bacteriostatic activity against Sarcina luteus after 24 hrs by two-fold serial dilution assay. The experiment is classed as functional.
Experiment [9] concerns Staphylococcus aureus. Put plainly: Bacteriostatic activity against Staphylococcus aureus ATCC 29213 after 24 hrs by two-fold serial dilution assay. Type of experiment: functional. The note with it: ATCC 29213, 24 h.
Experiment [10] concerns Priestia megaterium. Briefly: Bacteriostatic activity against Bacillus megaterium ATCC 9885 after 24 hrs by two-fold serial dilution assay. Type of experiment: functional. The settings on record: ATCC 9885, 24 h.
The subject of experiment [11] is Pseudomonas aeruginosa. Put plainly: Bacteriostatic activity against Pseudomonas aeruginosa ATCC 27953 after 24 hrs by two-fold serial dilution assay. Type of experiment: functional. The settings on record: ATCC 27953, 24 h.
Experiment [12] relates to Bacillus spizizenii. Briefly: Bacteriostatic activity against Bacillus subtilis ATCC 6633 after 24 hrs by two-fold serial dilution assay. Type of experiment: functional. The note with it: ATCC 6633, 24 h.
Experiment [13] has as its system Proteus vulgaris. Briefly: Potency index, ratio of ciprofloxacin MIC to compound MIC for Proteus vulgaris. The experiment is classed as functional.
Experiment [14] relates to Klebsiella pneumoniae. Put plainly: Potency index, ratio of ciprofloxacin MIC to compound MIC for Klebsiella pneumoniae ATCC 13883. The experiment is classed as functional.
Experiment [15] has as its system Klebsiella pneumoniae. Put plainly: Antibacterial activity against Klebsiella pneumoniae ATCC 13883 assessed as growth inhibition at 1 mg/mL after 24 hrs by agar well diffusion assay. Type of experiment: functional. The settings on record: ATCC 13883, 24 h, read-out: DIZ.
Experiment [16] relates to Escherichia coli. Put plainly: Antibacterial activity against Escherichia coli ATCC 25922 assessed as growth inhibition at 1 mg/mL after 24 hrs by agar well diffusion assay. The experiment is classed as functional. The note with it: ATCC 25922, 24 h, read-out: DIZ.
In experiment [17] the test system is Pseudomonas aeruginosa. Put plainly: Potency index, ratio of ciprofloxacin MIC to compound MIC for Pseudomonas aeruginosa ATCC 27953. Type of experiment: functional.
Experiment [18] concerns Proteus vulgaris. Put plainly: Antibacterial activity against Proteus vulgaris assessed as growth inhibition at 1 mg/mL after 24 hrs by agar well diffusion assay. Type of experiment: functional. The note with it: read-out: DIZ.
Experiment [19] has as its system Priestia megaterium. Briefly: Antibacterial activity against Bacillus megaterium ATCC 9885 assessed as growth inhibition at 1 mg/mL after 24 hrs by agar well diffusion assay. The experiment is classed as functional. The settings on record: ATCC 9885, 24 h, read-out: DIZ.
Experiment [20] relates to Micrococcus luteus. Put plainly: Potency index, ratio of ciprofloxacin MIC to compound MIC for Sarcina luteus. Type of experiment: functional.
Experiment [21] relates to Saccharomyces cerevisiae. Briefly: Antifungal activity against Saccharomyces cerevisiae assessed as growth inhibition at 1 mg/mL after 24 hrs by agar well diffusion assay. The experiment is classed as functional. The note with it: read-out: DIZ.
Experiment [22] deals with Escherichia coli. Briefly: Potency index, ratio of ciprofloxacin MIC to compound MIC for Escherichia coli ATCC 25922. The experiment is classed as functional.
The test system of experiment [23] is Klebsiella pneumoniae. Briefly: Bacteriostatic activity against Klebsiella pneumoniae ATCC 13883 after 24 hrs by two-fold serial dilution assay. Type of experiment: functional. The settings on record: ATCC 13883, 24 h.
For experiment [24], the system named is Pseudomonas aeruginosa. Put plainly: Antibacterial activity against Pseudomonas aeruginosa ATCC 27953 assessed as growth inhibition at 1 mg/mL after 24 hrs by agar well diffusion assay. The experiment is classed as functional. The note with it: ATCC 27953, 24 h, read-out: DIZ.
The test system of experiment [25] is Escherichia coli. Put plainly: Bacteriostatic activity against Escherichia coli ATCC 25922 after 24 hrs by two-fold serial dilution assay. The note with it: ATCC 25922, 24 h. The experiment is classed as functional.
Experiment [26] has as its system Klebsiella pneumoniae. Put plainly: microbe, parasite or virus in culture. The note with it: ATCC 13883, 24 h, read-out: DIZ.
Description: Antibacterial activity against Klebsiella pneumoniae ATCC 13883 assessed as growth inhibition at 0.5 mg/mL after 24 hrs by agar well diffusion assay
Experiment [27] concerns Bacillus spizizenii. Put plainly: Antibacterial activity against Bacillus subtilis ATCC 6633 assessed as growth inhibition at 0.5 mg/mL after 24 hrs by agar well diffusion assay. The experiment is classed as functional. The settings on record: ATCC 6633, 24 h, read-out: DIZ.
In experiment [28] the test system is Micrococcus luteus. Put plainly: Antibacterial activity against Sarcina luteus assessed as growth inhibition at 0.5 mg/mL after 24 hrs by agar well diffusion assay. The settings on record: read-out: DIZ. The experiment is classed as functional.
For experiment [29], the system named is Pseudomonas aeruginosa. Put plainly: microbe, parasite or virus in culture. The settings on record: ATCC 27953, 24 h, read-out: DIZ.
Description: Antibacterial activity against Pseudomonas aeruginosa ATCC 27953 assessed as growth inhibition at 0.5 mg/mL after 24 hrs by agar well diffusion assay
The subject of experiment [30] is Proteus vulgaris. Briefly: Antibacterial activity against Proteus vulgaris assessed as growth inhibition at 0.5 mg/mL after 24 hrs by agar well diffusion assay. The experiment is classed as functional. The settings on record: read-out: DIZ.
Experiment [31] deals with Priestia megaterium. Briefly: Antibacterial activity against Bacillus megaterium ATCC 9885 assessed as growth inhibition at 0.5 mg/mL after 24 hrs by agar well diffusion assay. Type of experiment: functional. The settings on record: ATCC 9885, 24 h, read-out: DIZ.
The test system of experiment [32] is Staphylococcus aureus. Briefly: microbe, parasite or virus in culture. The note with it: ATCC 29213, 24 h, read-out: DIZ.
Description: Antibacterial activity against Staphylococcus aureus ATCC 29213 assessed as growth inhibition at 0.5 mg/mL after 24 hrs by agar well diffusion assay
Experiment [33] concerns Saccharomyces cerevisiae. Put plainly: Antifungal activity against Saccharomyces cerevisiae assessed as growth inhibition at 0.5 mg/mL after 24 hrs by agar well diffusion assay. Type of experiment: functional. The note with it: read-out: DIZ.
Experiment [34] has as its system Candida albicans. Put plainly: Antifungal activity against Candida albicans NRRLY 477 assessed as growth inhibition at 0.5 mg/mL after 24 hrs by agar well diffusion assay. Type of experiment: functional. The note with it: NRRLY 477, 24 h, read-out: DIZ.

Values after ≈ are worked out from the molar mass of the structure shown.

Turning to `O=C(O)CNC(=O)c1ccc(NC(=S)N/N=C2/CCc3ccccc32)cc1`, the zone of inhibition at 1000 µg/mL in the experiment on Bacillus spizizenii [1] came to 18 mm; in the experiment with Staphylococcus aureus [3], 28 mm; in the experiment with Candida albicans [5] it was 20 mm; in the experiment on Micrococcus luteus [7] it was 25 mm; in the experiment on Klebsiella pneumoniae [15], 28 mm; with Escherichia coli [16] it was 25 mm. Besides, the zone of inhibition at 1000 µg/mL came out at 20 mm with Proteus vulgaris [18], 18 mm in the experiment on Priestia megaterium [19], 20 mm in the experiment on Saccharomyces cerevisiae [21] and 28 mm in the experiment on Pseudomonas aeruginosa [24]. Also, the minimum inhibitory concentration (MIC) (usually the lowest concentration that inhibits growth of the organism) in the experiment with Proteus vulgaris [2] amounted to 12.5 µg/mL (≈ 32.7 µM); in the experiment on Candida albicans [4], 12.5 µg/mL (≈ 32.7 µM); with Saccharomyces cerevisiae [6] it was 50 µg/mL (≈ 131 µM); in the experiment on Micrococcus luteus [8] it was 12.5 µg/mL (≈ 32.7 µM); against Staphylococcus aureus [9] it was 6.25 µg/mL (≈ 16.3 µM); with Priestia megaterium [10] it was 50 µg/mL (≈ 131 µM). Besides, the MIC stood at 6.25 µg/mL (≈ 16.3 µM) against Pseudomonas aeruginosa [11], 25 µg/mL (≈ 65.4 µM) in the experiment on Bacillus spizizenii [12], 12.5 µg/mL (≈ 32.7 µM) against Klebsiella pneumoniae [23] and 12.5 µg/mL (≈ 32.7 µM) in the experiment with Escherichia coli [25]. Also, the PI in the experiment with Proteus vulgaris [13], with Klebsiella pneumoniae [14], with Pseudomonas aeruginosa [17], in the experiment with Micrococcus luteus [20] and in the experiment on Escherichia coli [22] was 2 in each case.

As to `O=C(O)c1cn(C2CC2)c2cc(N3CCNCC3)c(F)cc2c1=O` [CIPROFLOXACIN], the minimum inhibitory concentration (MIC) against Proteus vulgaris [2] was determined as 12.5 µg/mL (≈ 37.7 µM); in the experiment on Micrococcus luteus [8], 12.5 µg/mL (≈ 37.7 µM); against Priestia megaterium [10], 6.25 µg/mL (≈ 18.9 µM); with Bacillus spizizenii [12] it was 6.25 µg/mL (≈ 18.9 µM); against Klebsiella pneumoniae [23], 12.5 µg/mL (≈ 37.7 µM); against Escherichia coli [25], 12.5 µg/mL (≈ 37.7 µM). Also, the zone of inhibition at 500 µg/mL with Klebsiella pneumoniae [26] came out at 25 mm; with Bacillus spizizenii [27] it was 22 mm; in the experiment with Micrococcus luteus [28], 20 mm; with Pseudomonas aeruginosa [29], 24 mm; in the experiment with Proteus vulgaris [30], 23 mm; with Priestia megaterium [31] it was 24 mm. In the experiment with Staphylococcus aureus [32], the zone of inhibition at 500 µg/mL came to 20 mm.

With `CC(=O)N1CCN(c2ccc(OCC3COC(Cn4ccnc4)(c4ccc(Cl)cc4Cl)O3)cc2)CC1` (configuration not stated) [KETOCONAZOLE], the MIC against Candida albicans [4] worked out at 6.25 µg/mL (≈ 11.8 µM); in the experiment with Saccharomyces cerevisiae [6] it was 3.12 µg/mL (≈ 5.87 µM). The values for the zone of inhibition at 500 µg/mL with Saccharomyces cerevisiae [33] and in the experiment on Candida albicans [34] were 23 mm and 22 mm, respectively.
